In patent US8901176B2, “Methods for treatment of Parkinson's disease” (Newron Pharmaceuticals, S.P.A., priority 2003, dated 2014):

What was measured:
healthy volunteers [1] = details: in vivo; cited from earlier work
[2] = test system: patients affected by idiopathic early Parkinson's disease; test: Phase II dose finding, double-blind, placebo controlled 12-week study: efficacy (UPDRS section III responder rate, CGI); type: in vivo, human; details: for Non Responders, % / Responders, % / Responder rate (improvement of at least 30% in UPDRS section III): final visit; for Responder rate at final visit, %: 12 weeks, ITT cohort, versus placebo 21.4%
Text: Mode of administration was oral, once daily; and duration of treatment was 12 weeks. The primary efficacy variable in this study was the proportion of patients considered to have achieved a response defined as an improvement of at least 30% in the unified Parkinson's disease ratings scale (UPDRS) section III score between baseline (Visit 2) and the end of the study (Visit 9 or early study termination).
The intent-to-treat (ITT) cohort was defined as all randomized patients who received at least one dose of study medication and for whom at least one UPDRS section III assessment after treatment was available.
The analysis based on the ITT Cohort was considered a primary analysis and was performed for all parameters except safety parameters.
The per-protocol (PP) cohort was defined as all patients who completed the study without major protocol violations. Minor violations not leading to exclusion from the PP cohort were defined during a blind review meeting after data cleaning. Drop-outs due to lack of efficacy and due to adverse events were not excluded from the PP cohort.
The primary efficacy variable was the percentage of patients with an improvement of at least 30% in the UPDRS section III score between baseline (Visit 2) and the end of the study (Visit 9 or early study termination). Comparison between the treatment groups was performed in the ITT analysis cohort (primary analysis) using a logistic regression model taking into account UPDRS section III score at baseline, the patient's treatment history (de-novo, single dopamine agonist alone, single dopamine agonists with a prior Parkinson's disease treatment) and the country.
The percentage of patients with an improvement of at least 30% in the UPDRS section III score at Visits 5 and 7 was analyzed using the same methods as for the primary efficacy variable.

[3] = pre-clinical studies; cited from earlier work
MAO-B = details: cited from earlier work
[4] = test system: patients affected by idiopathic early Parkinson's disease; test: Phase II dose finding, double-blind, placebo controlled 12-week study: safety (adverse events, vital signs, ECG, laboratory); details: for related adverse events: placebo 25.0%; for percentage of patients with adverse events: placebo 50.0%
Procedure: Safety was monitored by adverse events, vital signs, 12-lead ECG and clinical laboratory variables.
Patients were assigned to the study treatment group as randomized.
The analyses based on the safety cohort were performed for the safety parameters, demographic data and the most important baseline characteristics which were defined in the analysis plan.
Incidences of adverse events were calculated overall, by body system and by preferred term. Vital sign measurements at baseline (Visit 2) were compared to further visits using the Kruskal-Wallis test. All other safety variables were analysed descriptively.

healthy volunteers [5] = details: 71 healthy volunteers; single doses of 10 mg/kg or 7 days of repeated doses of 5 mg/kg/day; cited from earlier work
rodents given MPTP = details: cited from earlier work
primates = details: after 12 week daily administration; cited from earlier work
[6] = test system: animal model of wearing off; details: response diminished after 28 days continuous L-dopa treatment; cited from earlier work
[7] = De Novo subgroup (N = 66), Safinamide 0.5 mg/kg
[8] = De Novo subgroup (N = 66), Safinamide 1.0 mg/kg

C[C@H](NCc1ccc(OCc2cccc(F)c2)cc1)C(N)=O [Safinamide, (+)-(S)-2-[[p-[(m-fluorobenzyl)oxy]-benzyl]amino]propionamide]
amount of i.v. tyramine to raise BP by 30 mm Hg, compared to placebo (cheese effect) (healthy volunteers [1]): equal or greater amount of i.v. tyramine was required
Non Responders, % [2, 7]: 77.3%
Responders, % [2, 7]: 22.7%
Non Responders, % [2, 8]: 77.3%
Responders, % [2, 8]: 22.7%
Responder rate at final visit, % ([2]; Safinamide 0.5 mg/kg oral once daily, group N = 55, p 0.132): 30.9%
Responder rate at final visit, % ([2]; Safinamide 1.0 mg/kg oral once daily, group N = 56, p 0.016): 37.5%
Non Responders, % ([2]; Single DA subgroup (N = 101), Safinamide 0.5 mg/kg add-on): 63.6%
Non Responders, % ([2]; Single DA subgroup (N = 101), Safinamide 1.0 mg/kg add-on): 52.9%
Responders, % ([2]; Single DA subgroup (N = 101; stable dopamine agonist treatment), Safinamide 0.5 mg/kg add-on, placebo 20.6%): 36.4%
Responders, % ([2]; Single DA subgroup (N = 101; stable dopamine agonist treatment), Safinamide 1.0 mg/kg add-on, placebo 20.6%, P = 0.024): 47.1%
Responder rate (improvement of at least 30% in UPDRS section III) ([2]; patients who received a single dopamine agonist alone, 0.5 mg safinamide, placebo 25.0%): 33.3%
Responder rate (improvement of at least 30% in UPDRS section III) ([2]; patients who received a single dopamine agonist alone, 1.0 mg safinamide, placebo 25.0%): 50.0%
Responder rate (improvement of at least 30% in UPDRS section III) ([2]; patients with a dopamine agonist with a prior Parkinson's disease treatment, 0.5 mg safinamide, placebo 14.3%): 40.0%
Responder rate (improvement of at least 30% in UPDRS section III) ([2]; patients with a dopamine agonist with a prior Parkinson's disease treatment, 1.0 mg safinamide, placebo 14.3%): 43.8%
changes in CGI part I between baseline (Visit 2) and Visit 6 ([2]; safinamide 0.5 mg/kg group versus other groups, p=0.049, Fisher's exact test): better outcome
average improvement of patients ([2]; safinamide added to a stabilized dose of a variety of dopamine agonists): 27.8%
average improvement of patients ([2]; safinamide administered alone): 6.9%
anticonvulsant activity [3]: broad spectrum of anticonvulsant activity
inhibition of MAO-B activity (MAO-B): potent, reversible inhibitor
overall safety (other vital signs, ECG recordings, laboratory parameters) ([4]; 0.5 and 1.0 mg/kg, 12 weeks): no safety concerns were raised
mean heart rate, change from baseline to the final visit ([4]; other treatment groups (safinamide 0.5 mg/kg, placebo)): a decrease was observed
tremor aggravated (nervous system disorders, most frequent adverse event) ([4]; safinamide 0.5 mg/kg group): 3.6 % of patients
patients who experienced serious adverse events ([4]; safinamide 0.5 mg/kg group (atrial fibrillation, pregnancy), unlikely related or not related): Two
related adverse events ([4]; safinamide 0.5 mg/kg group): 12.5 % of patients
percentage of patients with adverse events ([4]; safinamide 0.5 mg/kg group): 37.5 % of patients
nausea (gastrointestinal system disorders, most frequent adverse event) ([4]; safinamide 1.0 mg/kg group): 3.6 % of patients
patients who experienced serious adverse events ([4]; safinamide 1.0 mg/kg group (myasthenia gravis), not related): one
mean heart rate, change from baseline to the final visit ([4]; safinamide 1.0 mg/kg group, p=0.037, Kruskal-Wallis test): increased
related adverse events ([4]; safinamide 1.0 mg/kg group): 10.7 % of patients
percentage of patients with adverse events ([4]; safinamide 1.0 mg/kg group): 32.1 % of patients
deaths ([4]; whole study, 0.5 and 1.0 mg/kg groups): No deaths were reported
side effects (healthy volunteers [5]): did not produce any clinically relevant side effect
nigral neuronal death (rodents given MPTP; given 4 h after the toxin (MPTP) administration): capable of preventing nigral neuronal death
neostriatal dopamine depletion (rodents given MPTP; given prior to the administration of MPTP): prevented neostriatal dopamine depletion
neostriatal dopamine (primates): significant increase of neostriatal dopamine with increased turnover
motor effect in response to L-dopa [6]: restores the efficacy and duration of the motor effect
